According to patent US5750754A, “Heterocyclic compounds” (Zeneca Limited, priority 1993, dated 1998):
Where a name gives a salt, the structure may show the parent alone. Read-outs that look alike come from different tables or passages of the source.

Experiments:
[1] = target: T1, purified human platelet fibrinogen receptor (GPIIb/IIIa) (Homo sapiens, UniProt P05106+P08514); assay: Test (b): GPIIb/IIIa ELISA, inhibition of biotinylated fibrinogen binding; conditions: purified human platelet GPIIb/IIIa, ELISA
T1 construct: is isolated from human platelet lysates; from tissue
T1 sequence (P08514 32-887 limits assumed): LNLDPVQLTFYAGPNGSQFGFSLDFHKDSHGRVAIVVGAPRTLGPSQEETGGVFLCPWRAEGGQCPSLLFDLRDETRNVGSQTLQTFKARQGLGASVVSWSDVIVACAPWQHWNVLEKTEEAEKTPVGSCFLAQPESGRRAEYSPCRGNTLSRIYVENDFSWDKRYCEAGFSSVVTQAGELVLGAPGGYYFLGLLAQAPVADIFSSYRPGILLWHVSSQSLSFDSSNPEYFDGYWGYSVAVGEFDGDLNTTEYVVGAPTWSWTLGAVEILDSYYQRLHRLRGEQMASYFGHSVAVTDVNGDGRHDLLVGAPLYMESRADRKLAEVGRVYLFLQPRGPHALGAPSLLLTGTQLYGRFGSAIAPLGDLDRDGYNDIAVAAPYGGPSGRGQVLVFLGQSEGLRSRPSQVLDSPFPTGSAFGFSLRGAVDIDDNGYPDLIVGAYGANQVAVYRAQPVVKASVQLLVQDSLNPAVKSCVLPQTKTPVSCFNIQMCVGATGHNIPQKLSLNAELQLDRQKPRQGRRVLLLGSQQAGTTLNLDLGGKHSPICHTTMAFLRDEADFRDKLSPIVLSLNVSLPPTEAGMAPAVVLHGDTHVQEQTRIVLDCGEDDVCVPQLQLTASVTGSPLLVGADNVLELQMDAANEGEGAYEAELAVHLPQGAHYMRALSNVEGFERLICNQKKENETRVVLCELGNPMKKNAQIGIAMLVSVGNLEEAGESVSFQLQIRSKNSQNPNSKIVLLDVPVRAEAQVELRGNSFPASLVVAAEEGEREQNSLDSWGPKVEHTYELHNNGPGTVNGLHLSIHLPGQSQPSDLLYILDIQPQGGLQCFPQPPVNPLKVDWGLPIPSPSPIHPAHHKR
T1 sequence (P08514 891-1039 limits assumed): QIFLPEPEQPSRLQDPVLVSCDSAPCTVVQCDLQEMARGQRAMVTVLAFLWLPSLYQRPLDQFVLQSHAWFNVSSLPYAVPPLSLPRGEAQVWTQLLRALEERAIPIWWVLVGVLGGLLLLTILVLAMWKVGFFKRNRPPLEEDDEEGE
T1 sequence (P05106 27-788): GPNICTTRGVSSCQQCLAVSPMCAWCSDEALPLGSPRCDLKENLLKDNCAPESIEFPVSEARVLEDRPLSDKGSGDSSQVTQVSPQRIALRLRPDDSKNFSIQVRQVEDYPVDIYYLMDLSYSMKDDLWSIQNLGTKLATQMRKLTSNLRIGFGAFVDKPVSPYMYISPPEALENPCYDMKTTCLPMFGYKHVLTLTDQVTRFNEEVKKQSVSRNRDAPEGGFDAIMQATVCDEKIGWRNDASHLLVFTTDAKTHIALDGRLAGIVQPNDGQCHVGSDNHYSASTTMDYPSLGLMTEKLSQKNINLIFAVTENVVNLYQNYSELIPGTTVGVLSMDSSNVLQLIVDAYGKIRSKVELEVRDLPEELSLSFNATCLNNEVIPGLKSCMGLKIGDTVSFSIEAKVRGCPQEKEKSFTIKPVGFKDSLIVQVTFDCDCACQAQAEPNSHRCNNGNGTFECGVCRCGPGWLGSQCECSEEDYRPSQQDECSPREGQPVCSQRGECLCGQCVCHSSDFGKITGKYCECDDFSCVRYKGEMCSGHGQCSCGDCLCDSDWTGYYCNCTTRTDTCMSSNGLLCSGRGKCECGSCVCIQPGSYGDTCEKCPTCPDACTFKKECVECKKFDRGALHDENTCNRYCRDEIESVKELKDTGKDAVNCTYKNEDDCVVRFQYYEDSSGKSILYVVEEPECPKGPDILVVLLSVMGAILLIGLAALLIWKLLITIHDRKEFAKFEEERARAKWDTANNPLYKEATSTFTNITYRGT
Procedure: (i) Preparation of human platelet lysates.
Platelet rich plasma (PRP) is harvested by centrifugation (1000 rpm, 15 mins) of whole blood anticoaoulated with acid citrate dextrose (trisodium citrate 85 mM, citric acid 70 mM, d-glucose 110 mM) 1 part to 6 parts blood. Prostacyclin (PGI2, 1 μM) is added to the PRP before centrifugation (2400 pm, 15 mins) and the resulting pellet is resuspended in modified Tyrodes' solution (NaCl 130 mM, KCl 26 mM, NaHCO3 12 mM, NaH2 PO4 0.5 mM, MgCl2 1 mM, CaCl2 20 mM, Glucose 12 mM, HEPES 5 mM) containing bovine serum albumin 3.5 g/L, PGI2 1 μM and hirudin 0.5 U/ml. The platelet suspension is centrifuged (2400 rpm, 15 mins) and the resultant pellet resuspended in 500 μl of lysis buffer (octyl glucoside 50 mM, HEPES 10 mM, NaCl 150 mM, CaCl2 1 mM, MgCl2 1 mM, PMSF 1 mM, NEM 10 mM, leupeptin 0.1 mM), agitated at 4° C. for 15 minutes then centrifuged at 24000 rpm, 15 mins. The supernatant is stored at 4° C. and the pellet re-suspended in 500 μl of lysis buffer. The centrifugation process is repeated a further 3 tlimes, the pooled supernatants being stored at -70° C.
(ii) Receptor purification.
GP Ilb/Ila is isolated from human platelet lysates using a 2 ml peptide (KYGRGDS) coupled CNBr activated Sepharose affinity column. A 1.5 ml volume of platelet lysate is placed on the column and allowed to stand overnight at 4° C. Buffer (30 mls, octyl gluicoside 25 mM, HEPES 10 mM, NaCl 150 mM, CaCl2 1 mM, MgCl2 1 mM, PMSF 1 mM, NEM 10 mM, leupeptin 0.1 mM) is passed through the column and 2 ml fractions are collected throughout. GPIIb/IIIa is eluted with 12 mls of buffer containing HHLGGAKQAGDV (2 mg/ml, pH 7.5), the column is washed using 4 mls buffer and the remaining GPIIb/IIIa eluted using 12 mls buffer containing GRGDSPG (1 mg/ml pH 7.5). The column is finally washed using 20 mls of buffer and can be used for up to three such preparations. Fractions containing FGPIIb/IIIa are identified using gel electrophoresis and immunoblotting, pooled and stored at -70° C.
96 well microtitre plates are coated with 100 μl purified human platelet fibrinogen receptor (GPIIb/IIIa) diluted in coating buffer (Tris-HCl 20 mM, NaCl 150 mM, CaCl2 1 mM, pH 7.4) and left overnight at 4° C. The plates are washed using washing buffer (Tris-HCl 50 mM, NaCl 100 mM, CaCl2 2 mM, pH 7.4) and non-specific binding, blocked by the addition of 200 μl 2% BSA (2 hours, 30° C.). The plates are washed prior to incubation (2 hours, 30° C.) with 100 μl biotinylated fibrinogen ([…]) containing either vehicle or test compound. The plates are washed, incubated with streptavidin (5 μg/ml, 1 hour, ambient temperature), then washed again before the addition of 100 μl biotinylated horse radish peroxidase (0.1 μg/ml, 1 hour, ambient temperature). The plates are then washed and equal volumes of peroxidase substrate (3, 5, tetramethyl benzidine 0.4 g/l) and H2 O2 (0.02%) are mixed together immediately before addition of 150 μl to each well. Colour is allowed to develop for 10-15 mins before optical densities are read at 650 nm.
The concentration of compound required to cause 50% inhibition of biotinylated fibrinogen binding, is calculated and expressed as a pIC50 (-log(IC50)).

[2] = target: T2, human, citrated, platelet-rich plasma (Homo sapiens, UniProt P05106+P08514); assay: Test (a): inhibition of ADP stimulated platelet aggregation (Born); assay type: cell-based; conditions: ADP induced aggregation of human platelet-rich plasma
T2 construct: aggregating human, citrated, platelet-rich plasma; endogenous in cells; host or cells: human platelets in citrated platelet-rich plasma
T2 sequence (P08514 32-887 limits assumed): as the sequence (P08514 32-887 limits assumed) above
T2 sequence (P08514 891-1039 limits assumed): as the sequence (P08514 891-1039 limits assumed) above
T2 sequence (P05106 27-788): as the sequence (P05106 27-788) above
In short: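 ADP added to human citrated platelet-rich plasma to build aggregation dose-response curves, repeated with increasing test compound (generally 10-^5 M to 10-^10 M). pA2 derived from the 50% response value for ADP with vs. without compound, averaged over several concentrations.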

[3] = read-out: Test (b): pIC50 (-log(IC50)), 50% inhibition of biotinylated fibrinogen binding to GPIIb/IIIa (converted)
[4] = read-out: Test (a): pA2 value indicating potency of platelet aggregation inhibition (converted)
[5] = Test (b): pIC50 (-log(IC50)), 50% inhibition of biotinylated fibrinogen binding to GPIIb/IIIa
[6] = Test (a): pA2 value indicating potency of platelet aggregation inhibition

Row | Structure (SMILES) | IC50 [1, 3] | Kb [2, 4] | IC50 [1, 5] | Kb [2, 6]
1 | O=C(O)COc1ccc2c(=O)c(N3CCN(c4ccncc4)CC3)cn(Cc3ccccc3)c2c1 [Example 49, [1-Benzyl-3-[4-(4-pyridyl)piperazin-1-yl]-4-quinolon-7-yl]oxyacetic acid trifluoroacetate salt] | 6.31 nM | 79.4 nM |  | 
2 | CCOC(=O)CCCOc1ccc(N2CCN(c3ccncc3)CC2)cc1 [Example 50, Ethyl 4-[4-[4-(4-pyridyl)piperazin-1-yl]phenoxy]butyrate] | > 100000 nM | 794 to 1000 nM |  | 
3 | CCOC(=O)CCCCOc1ccc(N2CCN(c3ccncc3)CC2)cc1 [Example 52] | > 100000 nM | 10000 nM |  | 
4 | CCOC(=O)C=CCOc1ccc(N2CCN(c3ccncc3)CC2)cc1 [Example 54, Ethyl 4-[4-(4-pyridyl)piperazin-1-yl]phenoxycrotonate] | > 100000 nM | 15800 nM |  | 
5 | O=C(O)CC(NC(=O)c1cccc(CN2CCN(c3ccncc3)CC2)c1)c1ccccc1 (stereo not drawn) [Example 55, 3-[3-[4-(4-Pyridyl)piperazin-1-ylmethyl]]benzamido-3-phenylpropionic acid] | 15800 nM | 31600 nM |  | 
6 | COC(=O)CC(NC(=O)c1ccc(N2CCN(c3ccncc3)CC2)cc1)c1ccccc1 (stereo not drawn) [Example 58, Methyl 3-[4-[4-(4-pyridyl)piperazin-1-yl]benzamido]-3-phenylpropionate] | 39800 nM | 3160 nM |  | 
7 | O=C(O)CC(NC(=O)c1ccc(N2CCN(c3ccncc3)CC2)cc1)c1ccccc1 (stereo not drawn) [Example 59, 3-[4-[4-(4-Pyridy)piperazin-1-yl]benzamido]-3-phenylpropionic acid] | 31.6 nM | 63.1 nM |  | 
8 | COC(=O)CC(C)NC(=O)c1ccc(N2CCN(c3ccncc3)CC2)cc1 (stereo not drawn) [Example 60, Methyl 3-[4-[4-(4-pyridyl)piperazin-1-yl]benzamido]butyrate] | 15800 nM | 10000 nM |  | 
9 | CCn1cc(C(=O)O)c(=O)c2ccc(N3CCN(c4ccncc4)CC3)cc21 [Example 65, Ethyl-4-[4-(4-pyridyl)piperazin-1-yl]-4-quinolon-3-ylcarboxylic acid] | 2510 nM | 6310 nM |  | 
10 | COC(=O)CCNC(=O)c1ccc(N2CCN(c3ccncc3)CC2)nc1 [Example 69, Methyl 3-[6-[4-(4-pyridyl)piperazin-1-yl]pyrid-3-ylcarboxamido]propionate] | 3980 nM | 12600 nM |  | 
11 | O=C(O)CCNC(=O)c1ccc(N2CCN(c3ccncc3)CC2)nc1 [Example 70, 3-[6-[4-(4-Pyridyl)piperazin-1-yl]pyrid-3-ylcarboxamido]propionic acid] | 15.8 nM | 79.4 nM |  | 
12 | O=C(O)CCNC(=O)c1cccc(N2CCN(c3ccncc3)CC2)n1 [Example 74, 3-[6-[4-(4-Pyridyl)piperazin-1-yl]pyrid-2-yl]carboxamidopropionic acid] | 2000 nM | 10000 nM |  | 
13 | CN(Cc1ccc(-c2ccc(OCC(=O)O)cc2)cc1)c1ccncc1 [Example 75, 4-[4'-[N-Methyl-N-(4-pyridyl)]aminomethyl]biphenyloxyacetic acid] | 3980 nM | 31600 nM |  | 
14 | O=C(O)C=Cc1ccc(CN2CCN(c3ccncc3)CC2)cc1 [Example 77, 4-[[4-(4-Pyridyl)piperazin-1-yl]methylene]cinnamic acid] | 501 nM | 7940 nM |  | 
15 | COC(=O)COc1ccc(C(=O)C(C)N2CCN(c3ccncc3)CC2)cc1OCC(=O)OC (stereo not drawn) [Example 78] | 251 nM | 158 nM |  | 
16 | CC(C(=O)c1ccc(OCC(=O)O)c(OCC(=O)O)c1)N1CCN(c2ccncc2)CC1 (stereo not drawn) [Example 79, 4-[2-[(4-Pyridyl)piperazin-1-yl]-2-methyl]acetyl-1,2-diphenoxydiacetic acid] |  |  | 3.16 nM | 12.6 nM
17 | COC(=O)COc1ccc2c(c1)CCC(N1CCN(c3ccncc3)CC1)C2=O (stereo not drawn) [Example 80, Methyl 2-[4-(4-pyridyl)piperazin-1-yl]tetralone-6-oxyacetate] |  |  | 398 nM | 251 nM
18 | CCCCS(=O)(=O)N[C@@H](Cc1ccc(OCCCC2CCN(c3ccncc3)CC2)cc1)C(=O)OC [Example 81, Methyl 2-S-(n-butylsulphonylamino)-3-[4-[3-[1-(4-pyridyl)piperidin-4-yl]propoxy]phenyl]propionate] | 200 nM | 15800 nM |  | 

Now from value to compound, other results behind:

Row | IC50 [1, 3] | Kb [2, 4] | Structure (SMILES) | IC50 [1, 5] | Kb [2, 6]
19 | 251 nM | 10000 nM | O=C(O)COc1ccc(C(=O)CN2CCN(c3ccncn3)CC2)cc1 [Example 48, 4-[2-[4-(4-Pyrimidinyl)piperazin-1-yl]acetyl]phenoxyacetic acid] |  | 
20 | 3.98 to 25.1 nM | 12.6 to 100 nM | O=C(O)CCCOc1ccc(N2CCN(c3ccncc3)CC2)cc1 [Example 51, 4-[4-[4-(4-Pyridyl)piperazin-1-yl]phenoxy]butyric acid] |  | 
21 | 1260 nM | 1580 nM | O=C(O)CCCCOc1ccc(N2CCN(c3ccncc3)CC2)cc1 [Example 53, 5-[4-[4-(4-Pyridyl)piperazin-1-yl]phenoxy]pentanoic acid] |  | 
22 | 15800 nM | 3160 nM | COC(=O)CCNC(=O)c1ccc(N2CCN(c3ccncc3)CC2)cc1 [Example 56, Methyl 3-[4-[4-(4-pyridyl)piperazin-1-yl]]benzaminopropionate] |  | 
23 | 25.1 nM | 25.1 nM | O=C(O)CCNC(=O)c1ccc(N2CCN(c3ccncc3)CC2)cc1 [Example 57, 3-[4-[4-(4-Pyridyl)piperazin-1-yl]]benzamidopropionic acid] |  | 
24 | 200 nM | 31.6 nM | COC(=O)COc1ccc(C(=O)CN2CCN(c3ccncc3)CC2=O)cc1 [Example 61, Methyl 4-[2-[4-(4-pyridyl)piperazin-2-one-1-yl]acetyl]phenoxyacetate] |  | 
25 | 7.94 nM | 2.51 to 12.6 nM | O=C(O)COc1ccc(C(=O)CN2CCN(c3ccncc3)CC2=O)cc1 [Example 62, 4-[2-[4-(4-Pyridyl)piperazin-2-one-1-yl]acetyl]phenoxyacetic acid] |  | 
26 | 316 nM | 126 nM | COC(=O)COc1ccc(NC(=O)N2CCN(c3ccncc3)CC2)cc1 [Example 63, Methyl 4-[[4-(4-pyridyl)piperazin-1-yl]carboxamido]phenoxy acetate] |  | 
27 | 20 nM | 31.6 nM | O=C(O)COc1ccc(NC(=O)N2CCN(c3ccncc3)CC2)cc1 [Example 64, 4-[[4-(4-Pyridyl)piperazin-1-yl]carboxamido]phenoxyacetic acid] |  | 
28 | 39800 nM | 12600 nM | O=C(O)COc1ccc2nccc(N3CCN(c4ccncc4)CC3)c2c1 [Example 71, 4-[[4-(4-Pyridyl)piperazin-1-yl]quinolin-6-yl]oxyacetic acid] |  | 
29 | 63.1 nM | 501 nM | O=C(O)COc1ccc2nc(N3CCN(c4ccncc4)CC3)ccc2c1 [Example 73, 2-[4-(4-Pyridyl)piperazin-1-yl]quinolin-6-yloxyacetic acid] |  | 
30 | 1260 nM | 31600 nM | O=C(O)COc1ccc2c(CN3CCN(c4ccncc4)CC3)cccc2c1 [Example 76, 5-[[4-(4-Pyridyl)piperazin-1-yl]methylene]naphth-2-yloxyacetic acid] |  | 
